Tests used:
[1] = test system: edema of festoons and malar mounds; test: Studies of doxycycline as sclerosing agent at lower concentrations and compared with tetracycline; type: in vivo; conditions: versus tetracycline
[2] = test system: lower eyelid festoons and malar edema; type: in vivo, human
Protocol: An initial study of 15 consecutive patients with malar edema and/or festoons were injected with doxycycline hyclate at a concentration of 10 mg/mL. Pre- and post-injection photographs were reviewed and graded on a scale of 0 to 3 (0 no festoon, 1 small festoon, 2 medium festoon, 3 large festoon) by two blinded physician observers. […] Student t-test was used for statistical analysis.
Institutional Review Board (IRB) approval was obtained. A retrospective chart review was performed on 15 consecutive patients injected with doxycycline hyclate at a concentration of 10 mg/mL directly into their malar edema and festoons. The primary outcome measure was improvement in the appearance of lower eyelid festoons or malar edema. Pre- and post-injection photographs were reviewed and graded on a scale of 0 to 3 (0 no festoon, 1 small festoon, 2 medium festoon, 3 large festoon) by two blinded physician observers. All pre- and post-treatment photographs were taken in a standardized position without the use of a flash device. Written consent was obtained for the use of photographs and is on file with the authors. Additional data collected included patient age, volume of injection, location of injection, number of injections, and subjective complaints. […] Student t-test was used for statistical analysis.
Patients were offered injections in clinic or in the operating room with intravenous sedation, with or without concurrent eyelid surgery. For injections performed in the operating room, doxycycline hyclate was ordered from the hospital pharmacy at a concentration of 10 mg/mL. For injections performed in the office, doxycycline hyclate 100 mg sterile powder, lyophilized (Fresenius Kabi, Lake Zurich, Illinois, USA) was diluted to a concentration of 10 mg/mL with sterile 0.9% bacteriostatic sodium chloride solution. The solution was refrigerated at […], used within 48 hours of reconstitution, and protected from direct sunlight. Injections were performed using 1.0 mL syringes on a 30-gauge needle, directly into the festoon in multiple deep and intermediate planes beneath skin and muscle. Analysis of protected health information was compliant with the Health Insurance Portability and Accountability Act (HIPAA) and adherent to the Declaration of Helsinki.

bruising, average duration ([2]; human, in vivo): 10 days
patients reporting burning pain during the injection ([2]; human, in vivo): 100%
skin redness, average duration of symptoms ([2]; human, in vivo): 2 days
SMILES: C[C@H]1c2cccc(O)c2C(=O)C2=C(O)[C@]3(O)C(=O)C(C(N)=O)=C(O)[C@@H](N(C)C)[C@@H]3[C@@H](O)[C@@H]21 [doxycycline hyclate]
risk of necrotizing dermalysis compared with tetracycline [1]: significantly lower risk
average (standard deviation) festoon grade after injection ([2]; post-injection, 10 mg/mL intralesional, scale 0 to 3, 20 treatment sides of 11 patients, mean follow up 22.5 weeks, p-value<0.001 vs initial): 0.9 (0.82)
average (standard deviation) initial festoon grade ([2]; pre-injection, scale 0 to 3 (0 no festoon, 3 large festoon), 20 treatment sides of 11 patients, two blinded physician observers): 2.5 (0.58)

Reference: patent US12491198B2, “Doxycycline injection for sclerotherapy of lower eyelid festoons and malar edema” (LKF21, LLC, priority 2020, dated 2025)
